Values after ≈ are worked out from the molar mass of the structure shown. Where two headings read alike, the source gives them in different places.
Assays:
[1] = amide bond, 15-membered ring, PyBOP/DIEA, DCM, 0.7 mM, 25.0 °C
[2] = test system: human hepatocellular carcinoma HepG2; assay type: cell-based; settings: 48 h
Protocol: (§1) Lung cancer A549, drug-resistant lung cancer A549-DPP, human hepatocellular carcinoma HepG2 and hepatocellular carcinoma SMMC-7721 cells obtained from the China cell bank of the Institute of Biochemistry and were cultured in DMEM culture medium (DMEM, Corning, NY, USA) containing 10% fetal bovine serum (FBS, Hyclone, Logan, UT, USA), 1% penicillin-streptomycin and an antifungal agent in a 5% CO2 humidified atmosphere at 37 °C. The culture medium was replaced once in a day. Trypsin digestion method was adopted for cell propagation. Upon reaching 80%–90% confluence, the cells were rinsed twice with PBS. A certain amount of 0.25% trypsin digestion solution was then added and maintained for 3–5 min at 37 °C. Afterward, DMEM culture medium containing 10% fetal bovine serum was added to terminate the digestion. The cells were then blown well to form single cell suspensions.
(§2) The cell viability was determined by measuring the ability of cells to transform MTT (Genview, Houston, TX, USA) to a purple formazan dye. The cells were seeded in 96-well tissue culture plates at 2.5 × 10^3 cells/well for 24 h. The cells were then incubated with galaxamide and its analogues for 48 h. After incubation, 20 μL/well of MTT solution (5 mg/mL phosphate buffered saline) were added and incubated for 5 h. The medium was aspirated and replaced with 100 μL/well of DMSO to dissolve the formazan salt. The color intensity of the formazan solution, which reflects the cell growth condition, was measured at 570 nm using a microplate spectrophotometer (SpectroAma™ 250, Winooski, VT, USA).

[3] = test system: hepatocellular carcinoma SMMC-7721 cells; assay type: cell-based, human; settings: for IC50 Value SMMC-7721: 48 h
Protocol: as §1, §2

[4] = test system: drug-resistant lung cancer cell line A549/DPP; assay type: cell-based, human; settings: 48 h
Protocol: as §1, §2

[5] = test system: Lung cancer cell line A549; assay type: cell-based, human; settings: 48 h
Protocol: as §1, §2

[6] = ratio of IC50 values, MTT assay

CC(C)C[C@@H]1NC(=O)[C@H](CC(C)C)NC(=O)[C@@H](Cc2ccccc2)NC(=O)[C@H](CC(C)C)N(C)C(=O)[C@@H](CC(C)C)NC1=O [cyclo(D-Phe-Leu-Leu-D-Leu-N-Me-Leu)]
ring closure, yield after HPLC ([1]; from H-dPhe-Leu-Leu-dLeu-MeLeu-OH?): 65.4%

CC(C)C[C@@H]1NC(=O)[C@@H](CC(C)C)N(C)C(=O)[C@H](CC(C)C)NC(=O)[C@@H](Cc2ccccc2)NC(=O)[C@@H](CC(C)C)NC1=O [Compound 4, cyclo(D-Phe-Leu-D-N-Me-Leu-Leu-D-Leu)]
IC50 Value HepG2 [2]: 16.58 µg/mL (≈ 27 µM) | IC50 Value SMMC-7721 [3]: 1.53 µg/mL (≈ 2.49 µM) | IC50 Value A549-DPP [4]: 19.71 µg/mL (≈ 32.1 µM) | IC50 Value A549 [5]: 8.89 µg/mL (≈ 14.5 µM)

CC(C)C[C@@H]1NC(=O)[C@H](CC(C)C)N(C)C(=O)[C@H](CC(C)C)NC(=O)[C@@H](CC(C)C)N(C)C(=O)[C@@H](Cc2ccccc2)NC1=O [Compound 19, cyclo(D-Phe-D-N-Me-Leu-Leu-N-Me-Leu-Leu)]
IC50 Value HepG2 [2]: 4.25 µg/mL (≈ 6.77 µM) | IC50 Value SMMC-7721 [3]: 2.7 µg/mL (≈ 4.3 µM) | IC50 Value A549-DPP [4]: 17.73 µg/mL (≈ 28.2 µM) | IC50 Value A549 [5]: 5.21 µg/mL (≈ 8.3 µM)

CC(C)C[C@@H]1NC(=O)[C@@H](CC(C)C)N(C)C(=O)[C@H](CC(C)C)NC(=O)[C@@H](Cc2ccccc2)NC(=O)[C@@H](CC(C)C)NC1=O [cyclo(D-Phe-Leu-D-N-Me-Leu-Leu-D-Leu)]
ring closure, yield after HPLC ([1]; from H-dPhe-Leu-dMeLeu-Leu-dLeu-OH?): 53.8%

CC(C)C[C@@H]1NC(=O)[C@H](Cc2ccccc2)NC(=O)[C@@H](CC(C)C)N(C)C(=O)[C@H](CC(C)C)NC(=O)[C@H](CC(C)C)NC1=O [Compound 24, cyclo(Phe-Leu-Leu-Leu-D-N-Me-Leu)]
IC50 Value HepG2 [2]: 7.92 µg/mL (≈ 12.9 µM) | IC50 Value SMMC-7721 [3]: 7.04 µg/mL (≈ 11.5 µM) | IC50 Value A549-DPP [4]: 9.26 µg/mL (≈ 15.1 µM) | IC50 Value A549 [5]: 3.45 µg/mL (≈ 5.62 µM)

CC(C)C[C@H]1NC(=O)[C@@H](CC(C)C)NC(=O)[C@H](CC(C)C)N(C)C(=O)[C@@H](CC(C)C)NC(=O)[C@H](Cc2ccccc2)NC1=O [cyclo(Phe-D-Leu-N-Me-Leu-D-Leu-D-Leu)]
ring closure, yield after HPLC ([1]; from H-Phe-dLeu-MeLeu-dLeu-dLeu-OH?): 57.3%

CC(C)C[C@@H]1NC(=O)[C@H](Cc2ccccc2)NC(=O)[C@H](CC(C)C)N(C)C(=O)[C@@H](CC(C)C)NC(=O)[C@H](CC(C)C)NC1=O [cyclo(Phe-Leu-Leu-D-Leu-N-Me-Leu)]
ring closure, yield after HPLC ([1]; from H-Phe-Leu-Leu-dLeu-MeLeu-OH?): 46.1%

CC(C)C[C@@H]1NC(=O)[C@H](Cc2ccccc2)NC(=O)[C@@H](CC(C)C)NC(=O)[C@@H](CC(C)C)NC(=O)[C@@H](CC(C)C)N(C)C1=O [cyclo(Phe-Leu-D-N-Me-Leu-D-Leu-D-Leu)]
ring closure, yield after HPLC ([1]; from H-Phe-Leu-dMeLeu-dLeu-dLeu-OH?): 51.7%

CC(C)C[C@@H]1NC(=O)[C@@H](Cc2ccccc2)NC(=O)[C@H](CC(C)C)N(C)C(=O)[C@H](CC(C)C)NC(=O)[C@@H](CC(C)C)NC1=O [cyclo(D-Phe-Leu-D-Leu-Leu-N-Me-Leu)]
ring closure, yield after HPLC ([1]; from H-dPhe-Leu-dLeu-Leu-MeLeu-OH?): 48.5%

CC(C)C[C@@H]1NC(=O)[C@H](Cc2ccccc2)NC(=O)[C@@H](CC(C)C)N(C)C(=O)[C@H](CC(C)C)NC(=O)[C@H](CC(C)C)NC1=O [cyclo(Phe-Leu-Leu-Leu-D-N-Me-Leu)]
ring closure, yield after HPLC ([1]; from H-Phe-Leu-Leu-Leu-dMeLeu-OH?): 66.4%

CC(C)C[C@@H]1NC(=O)[C@@H](Cc2ccccc2)NC(=O)[C@@H](CC(C)C)N(C)C(=O)[C@@H](CC(C)C)NC(=O)[C@@H](CC(C)C)NC1=O [cyclo(D-Phe-Leu-D-Leu-D-Leu-D-N-Me-Leu)]
ring closure, yield after HPLC ([1]; from H-dPhe-Leu-dLeu-dLeu-dMeLeu-OH?): 50%

CC(C)C[C@@H]1NC(=O)[C@H](CC(C)C)N(C)C(=O)[C@@H](Cc2ccccc2)NC(=O)[C@@H](CC(C)C)N(C)C(=O)[C@H](CC(C)C)NC1=O [cyclo(D-Phe-N-Me-Leu-Leu-Leu-D-N-Me-Leu)]
ring closure, yield after HPLC ([1]; from H-dPhe-MeLeu-Leu-Leu-dMeLeu-OH?): 45.1%

CC(C)C[C@H]1NC(=O)[C@@H](Cc2ccccc2)NC(=O)[C@H](CC(C)C)N(C)C(=O)[C@@H](CC(C)C)NC(=O)[C@H](CC(C)C)N(C)C1=O [Compound 5, cyclo(D-Phe-D-Leu-N-Me-Leu-D-Leu-N-Me-Leu)]
IC50 Value HepG2 [2]: 5.23 µg/mL (≈ 8.33 µM) | IC50 Value SMMC-7721 [3]: 2.74 µg/mL (≈ 4.36 µM) | IC50 Value A549-DPP [4]: 23.61 µg/mL (≈ 37.6 µM) | IC50 Value A549 [5]: 6.89 µg/mL (≈ 11 µM)

CC(C)C[C@@H]1NC(=O)[C@H](CC(C)C)N(C)C(=O)[C@H](CC(C)C)NC(=O)[C@@H](CC(C)C)N(C)C(=O)[C@@H](Cc2ccccc2)NC1=O [cyclo(D-Phe-D-N-Me-Leu-Leu-N-Me-Leu-Leu)]
ring closure, yield after HPLC ([1]; from H-dPhe-dMeLeu-Leu-MeLeu-Leu-OH?): 45.5%

CC(C)C[C@H]1NC(=O)[C@@H](CC(C)C)NC(=O)[C@H](CC(C)C)N(C)C(=O)[C@@H](CC(C)C)NC(=O)[C@H](Cc2ccccc2)NC1=O [Compound 1, cyclo(Phe-D-Leu-N-Me-Leu-D-Leu-D-Leu)]
IC50 Value HepG2 [2]: 12.15 µg/mL (≈ 19.8 µM) | IC50 Value SMMC-7721 [3]: 1.25 µg/mL (≈ 2.04 µM) | anti-tumor activity towards SMMC-7721, fold higher than galaxamide [3, 6]: 9 fold | anti-tumor activity towards SMMC-7721, fold higher than reference DPP (cisplatin) [3, 6]: 10 fold | IC50 Value A549-DPP [4]: 27.2 µg/mL (≈ 44.3 µM) | IC50 Value A549 [5]: 8.74 µg/mL (≈ 14.2 µM)

CC(C)C[C@H]1NC(=O)[C@H](Cc2ccccc2)NC(=O)[C@H](CC(C)C)N(C)C(=O)[C@@H](CC(C)C)NC(=O)[C@@H](CC(C)C)NC1=O [Compound 21, cyclo(Phe-D-Leu-D-Leu-D-Leu-N-Me-Leu)]
IC50 Value HepG2 [2]: 15.3 µg/mL (≈ 24.9 µM) | IC50 Value SMMC-7721 [3]: 8.21 µg/mL (≈ 13.4 µM) | IC50 Value A549-DPP [4]: 18.6 µg/mL (≈ 30.3 µM) | IC50 Value A549 [5]: 6.47 µg/mL (≈ 10.5 µM)

CC(C)C[C@H]1NC(=O)[C@@H](Cc2ccccc2)NC(=O)[C@H](CC(C)C)N(C)C(=O)[C@@H](CC(C)C)NC(=O)[C@H](CC(C)C)N(C)C1=O [cyclo(D-Phe-D-Leu-N-Me-Leu-D-Leu-N-Me-Leu)]
ring closure, yield after HPLC ([1]; from H-dPhe-dLeu-MeLeu-dLeu-MeLeu-OH?): 53.9%

CC(C)C[C@@H]1NC(=O)[C@H](CC(C)C)N(C)C(=O)[C@@H](Cc2ccccc2)NC(=O)[C@@H](CC(C)C)N(C)C(=O)[C@H](CC(C)C)NC1=O [Compound 26, cyclo(D-Phe-N-Me-Leu-Leu-Leu-D-N-Me-Leu)]
IC50 Value HepG2 [2]: 7.12 µg/mL (≈ 11.3 µM) | IC50 Value SMMC-7721 [3]: 6.65 µg/mL (≈ 10.6 µM) | IC50 Value A549-DPP [4]: 11.33 µg/mL (≈ 18 µM) | IC50 Value A549 [5]: 4.27 µg/mL (≈ 6.8 µM)

CC(C)C[C@@H]1NC(=O)[C@H](Cc2ccccc2)NC(=O)[C@H](CC(C)C)N(C)C(=O)[C@@H](CC(C)C)NC(=O)[C@H](CC(C)C)NC1=O [Compound 20, cyclo(Phe-Leu-Leu-D-Leu-N-Me-Leu)]
IC50 Value HepG2 [2]: 9.68 µg/mL (≈ 15.8 µM) | IC50 Value SMMC-7721 [3]: 3.35 µg/mL (≈ 5.46 µM) | IC50 Value A549-DPP [4]: 16.15 µg/mL (≈ 26.3 µM) | IC50 Value A549 [5]: 7.41 µg/mL (≈ 12.1 µM)

CC(C)C[C@@H]1NC(=O)[C@@H](Cc2ccccc2)NC(=O)[C@@H](CC(C)C)NC(=O)[C@@H](CC(C)C)NC(=O)[C@H](CC(C)C)N(C)C1=O [Compound 2, cyclo(D-Phe-Leu-N-Me-Leu-D-Leu-D-Leu)]
IC50 Value HepG2 [2]: 7.76 µg/mL (≈ 12.6 µM) | IC50 Value SMMC-7721 [3]: 5.48 µg/mL (≈ 8.93 µM) | IC50 Value A549-DPP [4]: 15.01 µg/mL (≈ 24.5 µM) | IC50 Value A549 [5]: 5.27 µg/mL (≈ 8.59 µM)

CC(C)C[C@@H]1NC(=O)[C@@H](Cc2ccccc2)NC(=O)[C@@H](CC(C)C)N(C)C(=O)[C@@H](CC(C)C)NC(=O)[C@@H](CC(C)C)NC1=O [Compound 25, cyclo(D-Phe-Leu-D-Leu-D-Leu-D-N-Me-Leu)]
IC50 Value HepG2 [2]: 22.88 µg/mL (≈ 37.3 µM) | IC50 Value SMMC-7721 [3]: 6.85 µg/mL (≈ 11.2 µM) | IC50 Value A549-DPP [4]: 20.43 µg/mL (≈ 33.3 µM) | IC50 Value A549 [5]: 5.18 µg/mL (≈ 8.44 µM)

CC(C)C[C@@H]1NC(=O)[C@@H](Cc2ccccc2)NC(=O)[C@@H](CC(C)C)NC(=O)[C@@H](CC(C)C)NC(=O)[C@H](CC(C)C)N(C)C1=O [cyclo(D-Phe-Leu-N-Me-Leu-D-Leu-D-Leu)]
ring closure, yield after HPLC ([1]; from H-dPhe-Leu-MeLeu-dLeu-dLeu-OH?): 61.5%

CC(C)C[C@H]1NC(=O)[C@H](Cc2ccccc2)NC(=O)[C@H](CC(C)C)N(C)C(=O)[C@@H](CC(C)C)NC(=O)[C@@H](CC(C)C)NC1=O [cyclo(Phe-D-Leu-D-Leu-D-Leu-N-Me-Leu)]
ring closure, yield after HPLC ([1]; from H-Phe-dLeu-dLeu-dLeu-MeLeu-OH?): 55.1%

— publication PMC5039532, “Design and Synthesis of Analogues of Marine Natural Product Galaxamide, an N-methylated Cyclic Pentapeptide, as Potential Anti-Tumor Agent in Vitro” (Marine Drugs, 2016)
